# Experimental data: patent publication US20040034082A1, “Utilization of pyrazoline derivatives in the preparation of a medicament for the prevention and/or treatment of proliferative cell diseases” (priority 2001, published 2004)
# Read-outs that look alike come from different tables or passages of the source.
# Key:
# NC59 cells = assay: Signal transduction paths associated to apoptosis in NC59 cells; type: cell-based, human; details: 100 μM, 5 and 20 hours of exposure
# Description: The signal transduction paths associated to the apoptosis process were then studied. After exposing NC59 cells to a 100 μM concentration of the compound of example 3, the expression levels were studied for p53, FAK and β-actine and the activation level of MAP kinases, JNK and PKB/Akt, after 5 and 20 hours of exposure.
# [1] = system: promoter of the human VEGF gene; assay: Inhibition of the induction of VEGF: promoter-luciferase in transfected Caco-2 cells, TPA; type: cell-based; details: TPA 16 hours, read-out: Inhibition of the induction of VEGF IC-50
# Excerpt: This activity has been studied determining the inhibition of the induction of the expression of VEGF. The increased expression of vascular-endothelial growth factor (VEGF) has been related to tumour progression and angiogenesis. VEGF is a proangiogenic factor, promoting mitogenesis, migration and an increased vascular permeability of in vitro endothelial cells. It has been shown recently that COX-2 can regulate the angiogenesis process induced by colon cancer cells, increasing the expression of proangiogenic factors by said cells. Inhibition of COX-2 may block this process, inhibiting the expression of some of these factors, such as VEGF.
# (§1) In order to study the antiangiogenic activity of the products with general formula (I), the expression of the VEGF promoter was studied in a basal and stimulated situation using the Caco-2 human colon carcinoma cell line, temporally transfected with a vector containing the promoter f the human VEGF gene. Once the test conditions were established the capability of the product studied to inhibit the expression of the VEGF and TF genes was studied by measuring the luciferase activity of their promoters.
# In the test 1.25×10^5 Caco-2 cells were used temporally transfected with t corresponding DNA in 500 μl of DEMEM-10% FCS medium in 24 dimple plates. […]
# MDAMB 453 = assay: Cytotoxicity (XTT kit), mammary carcinoma cell line MDAMB 453; type: cell-based; details: Homo sapiens, MDA-MB-453, MDAMB 453, read-out: % Viability of mammary cancer cells ± SD
# Description: The anti-tumoral activity of the compounds with general formula (I) was studied, determining their effect on a mammary carcinoma cell line (MDAMB 453). The cell line was cultured in a DMEM medium (Life Technologies) supplemented with 10% foetal bovine serum (Life Technologies) at 37° C. and 5% CO2.
# (§2) Cytotoxicity tests were carried out using the XTT kit (Boehringer-Manheim) which measures the cell capability to metabolise a tetrazoyl salt to formazan.
# NC59 = assay: Cytotoxicity (XTT kit), human colon carcinoma cell line NC59; type: cell-based; details: for IC50: read-out: IC-50 (cytotoxicity)
# Description: (§3) The anti-tumoral activity of the compounds with general formula (I) was studied, determining their effect on cell lines of human colon carcinoma (TD 20 and NC 59). The two cell lines have the wild protein K-Ras. TD20 contains a mutation of the p53 suppressor gene, while NC59 has the p53 wild protein.
# (§4) Both cell lines were cultured in a DMEM medium (Life Technologies) supplemented with 10% foetal bovine serum (Life Technologies) at 37° C. and 5% CO2.
# as §2
# TD 20 = assay: Cytotoxicity (XTT kit), human colon carcinoma cell line TD20; type: cell-based; details: for IC50: read-out: IC-50 (cytotoxicity)
# Description: as §3, §4, §2
# TD20 = assay: Induction of apoptosis in tumour cell line TD20; type: cell-based, human; details: 100 μM
# Description: In order to obtain a deeper knowledge of the action mechanism of these compounds the capability to induce apoptosis in the tumour cell line TD20 of the compound of example 3 was studied (dose 100 μM).
# TF = assay: Inhibition of the induction of TF: promoter-luciferase in transfected Caco-2 cells, TPA; type: cell-based; details: Homo sapiens, TPA 16 hours, read-out: Inhibition of the induction of TF IC-50
# Excerpt: In turn, VEGF also induces the expression of Tissue Factor (TF) in monocyte membranes, epithelial cells and endothelium. Although the main function of TF is to initiate the coagulation cascade, it can transduce intracellular signals participating in metastasis and angiogenesis associated to tumours. TF facilitates in vivo growth of the tumour, favouring angiogenesis.
# as §1
# In the test 1.25×10^5 Caco-2 cells were used temporally transfected with t corresponding DNA in 500 μl of DEMEM-10% FCS medium in 24 dimple plates. The cells were pre-treated for 1 hour with the compounds to be tested, and later stimulated with TPA for 16 hours. Afterwards cell extracts were obtained and their luciferase activity examined, determining the protein concentration.
# [2] = Homo sapiens, Colon carcinoma cell, 1 μM, read-out: % Viability of colorectal cancer cells ± SD
# [3] = Homo sapiens, Colon carcinoma cell, 20 μM, read-out: % Viability of colorectal cancer cells ± SD
# [4] = Homo sapiens, Colon carcinoma cell, 30 μM, read-out: % Viability of colorectal cancer cells ± SD
# [5] = Homo sapiens, Colon carcinoma cell, 40 μM, read-out: % Viability of colorectal cancer cells ± SD
# [6] = Homo sapiens, Colon carcinoma cell, 60 μM, read-out: % Viability of colorectal cancer cells ± SD
# [7] = Homo sapiens, Colon carcinoma cell, 100 μM, read-out: % Viability of colorectal cancer cells ± SD
# [8] = Homo sapiens, Colon carcinoma cell
compound,measurement,setting,value
"NS(=O)(=O)c1ccc(N2N=C(C(F)(F)F)CC2c2ccc(F)cc2F)cc1 (racemic) [Example 3, 1-(4-aminosulphonylphenyl)-5(2,4-difluorophenyl)-4,5-dihydro-3-trifluoromethyl-1H-pyrazol]","signal transduction paths activated (p53, FAK, β-actine expression; MAP kinases, JNK, PKB/Akt activation)",NC59 cells,"activation of signal transduction paths other than p53, JNK or p38"
same,IC50,[1],20 µg/mL
same,viability at 1 µM,MDAMB 453; 1 μM,94.8 ± 8.71%
same,viability at 20 µM,MDAMB 453; 20 μM,31.5 ± 9.12%
same,viability at 40 µM,MDAMB 453; 40 μM,12.8 ± 4.8%
same,viability at 60 µM,MDAMB 453; 60 μM,5.97 ± 5.06%
same,viability at 80 µM,MDAMB 453; 80 μM,2.84 ± 1.71%
same,viability at 1 µM,NC59; [2],99.64 ± 0.51%
same,viability at 20 µM,NC59; [3],76.5 ± 8.7%
same,viability at 30 µM,NC59; [4],56.5 ± 0.25%
same,viability at 40 µM,NC59; [5],16.7 ± 10.5%
same,viability at 60 µM,NC59; [6],1.16 ± 0.83%
same,viability at 100 µM,NC59; [7],0%
same,IC50,NC59; [8],30 µM
same,IC50,NC59,29.9 µM
same,viability at 1 µM,TD 20; [2],98.6 ± 2.83%
same,viability at 20 µM,TD 20; [3],84.5 ± 3.05%
same,viability at 30 µM,TD 20; [4],66.3 ± 5.84%
same,viability at 40 µM,TD 20; [5],27.4 ± 4.12%
same,viability at 60 µM,TD 20; [6],1.79 ± 2.09%
same,viability at 100 µM,TD 20; [7],0.69 ± 0.01%
same,IC50,TD 20; [8],34 µM
same,IC50,TD 20,33.9 µM
same,apoptotic cells,TD20; after 24 h,20%
same,apoptotic cells,TD20; after 48 h,80%
same,IC50,TF,25 µg/mL
